Results: US4499094A, “Derivatives of arene and hetero-arene carboxamides and their use as medicaments” (Pharmuka Laboratoires, priority 1982, dated 1985)

Test system: binding sites of (^3 H) diazepam in the kidney
Assay: not given
Settings: kidney / peripheral level, in words; cited from earlier work

SMILES | activity at the binding sites of (^3 H) diazepam in the kidney (peripheral level)
CN1C(=O)CN=C(c2ccc(Cl)cc2)c2cc(Cl)ccc21 [Ro-5-4864] | very active at the peripheral level
O=C1CN=C(c2ccccc2Cl)c2cc([N+](=O)[O-])ccc2N1 [clonazepam] | practically inactive

Same assay, conditions: rank order; cited from earlier work

SMILES | classification by decreasing affinity, "peripheral" type
CN1C(=O)CN=C(c2ccc(Cl)cc2)c2cc(Cl)ccc21 [Ro-5-4864] | Ro-5-4864>diazepam>clonazepam
O=C1CN=C(c2ccccc2Cl)c2cc([N+](=O)[O-])ccc2N1 [clonazepam] | Ro-5-4864>diazepam>clonazepam
CN1C(=O)CN=C(c2ccccc2)c2cc(Cl)ccc21 [diazepam] | Ro-5-4864>diazepam>clonazepam

Test system: binding sites of (^3 H) diazepam in the brain
Assay: not given
Settings: brain, in words; cited from earlier work

SMILES | affinity for the binding sites of (^3 H) diazepam in the brain (central level)
CN1C(=O)CN=C(c2ccc(Cl)cc2)c2cc(Cl)ccc21 [Ro-5-4864] | inactive at the central level

Same assay, conditions: rank order; cited from earlier work

SMILES | classification by decreasing affinity, "cerebral" type
CN1C(=O)CN=C(c2ccc(Cl)cc2)c2cc(Cl)ccc21 [Ro-5-4864] | clonazepan>diazepam>Ro-5-4864

Biological target: T1, "peripheral" receptor sites of benzodiazepines (Rattus norvegicus, UniProt P16257)
T1 construct: on kidney membranes from the rat; from tissue; host or cells: rat kidney membranes
Assay: Affinity for "peripheral" receptor sites of benzodiazepines: displacement of tritiated diazepam on kidney membranes from the rat
Format: binding
Settings: not given
Source text: The products have been studied according to the method of C. BRAESTRUP et al, Proc. Natl. Acad. Sci. USA, 1977, 74, 3805, on kidney membranes from the rat.

SMILES | Ki
CCC(C)N(C)C(=O)c1cc2ccccc2c(-c2ccccc2)n1 (stereo not shown) [Example 10, N-methyl N(1-methylpropyl) 1-phenyl isoquinoline 3-carboxamide] | 0.002 µM

Same assay, conditions: read-out: Ki

SMILES | Ki
CCN(CC)C(=O)c1cc(-c2ccccc2)c2ccccc2c1 [Example 1, N,N-diethyl 4-phenyl naphthalene 2-carboxamide] | 0.0054 µM
CCN(CC)C(=O)c1cc(-c2ccccc2)c2ccccc2n1 [Example 3, N,N-diethyl 4-phenyl quinoline 2-carboxamide] | 0.027 µM
CCN(CC)C(=O)c1cc2ccccc2c(-c2ccccc2)n1 [Example 5, N,N-diethyl 1-phenyl isoquinoline 3-carboxamide] | 0.15 µM
CCN(CC)C(=O)c1cc2ccccc2c(-c2ccccc2Cl)n1 [Example 6, N,N-diethyl 1-(2-chloro-phenyl) isoquinoline 3-carboxamide] | 0.017 µM
O=C(c1cc2ccccc2c(-c2ccccc2)n1)N1CCCCC1 [Example 7, 1-[3-(1-phenylisoquinolyl)carbonyl]piperidine] | 0.21 µM
CCN(CC)C(=O)c1cc2ccccc2c(-c2cccc(Cl)c2)n1 [Example 11, N,N-diethyl 1-(3-chlorophenyl) isoquinoline 3-carboxamide] | 0.009 µM
CCN(CC)C(=O)c1cc2ccccc2c(-c2ccc(C)cc2)n1 [Example 12, N,N-diethyl 1-(4-methylphenyl) isoquinoline 3-carboxamide] | 0.099 µM
O=C(c1cc2ccccc2c(-c2ccccc2Cl)n1)N1CCCCC1 [Example 13, 1-[[1-(2-chlorophenyl) 3-isoquinolyl]carbonyl]piperidine] | 0.072 µM
CCCN(CCC)C(=O)c1cc2ccccc2c(-c2ccccc2Cl)n1 [Example 14, N,N-dipropyl 1-(2-chlorophenyl) isoquinoline 3-carboxamide] | 0.018 µM
CCN(CC)C(=O)c1cc2ccccc2c(-c2cccc(F)c2)n1 [Example 15, N,N-diethyl 1-(3-fluorophenyl) isoquinoline 3-carboxamide] | 0.02 µM
CCC(C)N(C)C(=O)c1cc2ccccc2c(-c2ccccc2F)n1 (stereo not shown) [Example 16, N-methyl N-(1-methylpropyl) 1-(2-fluorophenyl) isoquinoline 3-carboxamide] | 0.0009 µM
CN(Cc1ccccc1)C(=O)c1cc2ccccc2c(-c2ccccc2Cl)n1 [Example 17, N-methyl N-phenylmethyl 1-(2-chlorophenyl) isoquinoline 3-carboxamide] | 0.117 µM
CC(C)N(C(=O)c1cc2ccccc2c(-c2ccccc2Cl)n1)C(C)C [Example 24, N,N-di(1-methylethyl) 1-(2-chlorophenyl) isoquinoline 3-carboxamide] | 0.02 µM
C=CC(C)N(C)C(=O)c1cc2ccccc2c(-c2ccccc2Cl)n1 (stereo not shown) [Example 25, N-methyl N(1-methylpropene-2-yl) 1-(2-chlorophenyl) isoquinoline 3-carboxamide] | 0.003 µM
CCN(CC)C(=O)c1cc2sccc2c(-c2ccccc2Cl)n1 [Example 31, N,N-diethyl 4-(2-chlorophenyl) thieno[3,2-c]pyridine 6-carboxamide] | 0.009 µM
CCN(CC)C(=O)c1cc2ccsc2c(-c2ccccc2Cl)n1 [Example 32, N,N-diethyl 7-(2-chlorophenyl) thieno[2,3-c]pyridine 5-carboxamide] | 0.0063 µM
CCN(CC)C(=O)c1nc(-c2ccccc2)c2ccccc2n1 [Example 33, N,N-diethyl 4-phenyl quinazoline 2-carboxamide] | 0.027 µM
CCC(C)N(C)C(=O)c1cc(-c2ccccc2F)c2ccccc2n1 (stereo not shown) [Example 35, N-methyl N(1-methylpropyl) 4-(2-fluorophenyl) quinoline 2-carboxamide] | 0.002 µM
CCN(CC)C(=O)c1cc(-c2cccc([N+](=O)[O-])c2)c2ccccc2n1 [Example 38, N,N-diethyl 4-(3-nitrophenyl) quinoline 2-carboxamide] | 0.03 µM
CCCCN(CCCC)C(=O)c1cc2ccccc2c(-c2ccccc2)n1 [Example 39, N,N-dibutyl 1-phenyl isoquinoline 3-carboxamide] | 0.021 µM
CCC1CCCCN1C(=O)c1cc2ccccc2c(-c2ccccc2)n1 (stereo not shown) [Example 40, 2-ethyl 1-[(1-phenyl 3-isoquinolyl)carbonyl]piperidine] | 0.016 µM
CC[C@@H]1CCCCN1C(=O)c1cc2ccccc2c(-c2ccccc2)n1 [Example 41, 2(R)-ethyl 1-[(1-phenyl 3-isoquinolyl)carbonyl]piperidine] | 0.022 µM
CC[C@H]1CCCCN1C(=O)c1cc2ccccc2c(-c2ccccc2)n1 [Example 42, 2(S)-ethyl 1-[(1-phenyl 3-isoquinolyl)carbonyl]piperidine] | 0.013 µM
CCN(CC)C(=O)c1cc2ccccc2c(-c2cccc(C(F)(F)F)c2)n1 [Example 43, N,N-diethyl 1-(3-trifluoromethylphenyl) isoquinoline 3-carboxamide] | 0.013 µM
CCC(C)N(C)C(=O)c1cc2ccsc2c(-c2ccccc2Cl)n1 (stereo not shown) [Example 46, N-methyl N-(1-methylpropyl) 7-(2-chlorophenyl) thieno[2,3-c]pyridine 5-carboxamide] | 0.007 µM
CCC(C)N(C)C(=O)c1cc2sccc2c(-c2ccccc2Cl)n1 (stereo not shown) [Example 47, N-methyl N-(1-methylpropyl) 4-(2-chlorophenyl) thieno[3,2-c]pyridine 6-carboxamide] | 0.001 µM
